Entries after “also recorded” stand apart in the source; their conditions may differ.
Columns and labels:
pMCAO in rats = assay: Further pMCAO studies, treatment paradigms (first dose 2, 6 or 24 hours post-occlusion); type: in vivo, rat; details: for neurological function following pMCAO vs vehicle: 5 total doses, 3-week period; for neurological function following pMCAO, long-term: additional 3 months
Source text: Rats were subjected to pMCAO and treated with either the compound of Example 2 delivered intravenously into rat tail vein [iv vehicle: 5% Tween 80, 5% PEG 400, 4% ethanol] or vehicle alone. Three different treatment paradigms were used to determine the clinical relevance of the compound of Example 2. Long-term sensorimotor deficits are monitored (tactile/proprioceptive/hindlimb placement tests) over a 3-week and 6-month period. The animals are scored on a scale of 0-12 (normal to severe neurological deficits).
In the first study, the first dose of 10 mg/kg of the compound of Example 2 is given 2 hours post-occlusion, followed by 4 additional doses, 24 hours apart (5 total doses). Neurological deficits were monitored over a 3-week period.
In the second study, the first dose of the compound of Example 2 is given 6 hours post-occlusion, followed by 4 additional doses, 24 hours apart (5 total doses). Neurological deficits were monitored over a 3-week period.
These animals were maintained for an additional 3 months. During this period, neurological deficits were continually monitored, to determine whether the effect seen at 21 days is stable and long lasting.
In the third study, the first dose of the compound of Example 2 is given 24 hours post-occlusion, followed by 4 additional doses, 24 hours apart (5 total doses). Neurological deficits were monitored over a 3-week period.
Brains from animals in the third study were collected and processed for neuronal, regenerative, and cell death markers.

tMCAO in rats = assay: Transient middle cerebral artery occlusion (tMCAO) model of ischemic stroke; type: in vivo, rat; details: for reduction of infarct volume: 72 hours
Method: The compound of Example 2 was evaluated in two known rodent models of ischemic stroke. [Bederson J B, Pitts L H, Tsuji M, Nishimura M C, Davis R L, Bartkowski H (1986) Rat middle cerebral artery occlusion: evaluation of the model and development of a neurologic examination. Stroke 17(3): 472-476; Chen S T, Hsu C Y, Hogan E L, Maricq H Balentine J D (1986) A model of focal ischemic stroke in the rat: reproducible extensive cortical infarction. Stroke 17:738-743. DeRyck M, van Reempts J, Duytschaever H, van Deuren B, Clincke G (1992) Neocortical localization of tactile/proprioceptive limb placing reactions in the rat. Brain Res 573:44-60; Longa Z E, Weinstein P R, Carlson S, Cummins R. (1989) Reversible middle cerebral artery occlusion without craniectomy in rats. Stroke 20:294-297.]
The first model is a transient middle cerebral artery occlusion (tMCAO), in which the MCA is occluded for 90 minutes, followed by 72 hours of reperfusion. Rats were subjected to tMCAO and treated with either the compound of Example 2 (3 mg/kg, 10 mg/kg, or 30 mg/kg) via intravenous delivery [iv vehicle: 5% Tween 80, 5% PEG 400, 4% ethanol] or vehicle alone at 4, 6, 24, and 48 hours post-occlusion (4 total doses). Neurological deficits (modified Bederson scale) and weight loss were monitored at 0, 24, 48, and 72 hours post occlusion. At the end of the evaluation period, rats were euthanized and infarct volume was determined. A modified Bederson scale was used to evaluate neurological deficits following stroke. Animals were scored on a scale of 0 to 5, based on five parameters (forelimb flexion, torso twisting, resistant to lateral push, circling to contralateral side, and spontaneous circling). A score of 0 is normal whereas a score of 5 represents severe neurological deficits.

[1] = 10 mg/kg iv, first dose 6 hours post-occlusion
[2] = 30 mg/kg iv, first dose 6 hours post-occlusion
[3] = 30 mg/kg, third study (first dose 24 hours post-occlusion)
[4] = 6 hour post-occlusion, dose not stated

CO[C@H]1C[C@@H]2CC[C@@H](C)[C@@](O)(O2)C(=O)C(=O)N2CCCC[C@H]2C(=O)O[C@H]([C@H](C)C[C@@H]2CC[C@@H](O)[C@H](OC)C2)CC(=O)[C@H](C)/C=C(\C)[C@@H](O)[C@@H](OC)C(=O)[C@H](C)C[C@H](C)[C@@H]2CC[C@H](/C=C/1C)ON2c1ccccc1 [Example 2, 9,27-dihydroxy-3-{2-[4-hydroxy-3-methoxycyclohexyl]-1-methylethyl}-10,21-dimethoxy-6,8,12,14,20,26-hexamethyl-37-phenyl-4,9,10,12,13,14,15,16,17,18,21,22,23,24,25,26,27,32,33,34,34a-henicosahydro-3H-23,27-epoxy-18,15-(epoxyimino)pyrido[2,1-c][1,4]oxazacyclohentriacontine-1,5,11,28,29(6H,31H)-pentone]
neurological function following pMCAO vs vehicle (pMCAO in rats; 3 mg/kg iv, first dose 6 hours post-occlusion): did not improve neurological function
neurological function following pMCAO vs vehicle (pMCAO in rats; 3 mg/kg iv, first dose 24 hours post-occlusion): did not improve neurological function
neurological function following pMCAO vs vehicle (pMCAO in rats; 10 mg/kg iv, first dose 2 hours post-occlusion): significantly improved and accelerated neurological function; also recorded: improves neurological function
neurological function following pMCAO vs vehicle (pMCAO in rats; [1]): significantly improved and accelerated neurological function
neurological function following pMCAO, long-term (pMCAO in rats; [1]): further improved neurological function and this improvement was stable and long lasting
neurological function following pMCAO vs vehicle (pMCAO in rats; 10 mg/kg iv, first dose 24 hours post-occlusion): did not improve neurological function
neurological function following pMCAO vs vehicle (pMCAO in rats; [2]): significantly improved and accelerated neurological function
neurological function following pMCAO, long-term (pMCAO in rats; [2]): further improved neurological function and this improvement was stable and long lasting
neurological function following pMCAO vs vehicle (pMCAO in rats; 30 mg/kg iv, first dose 24 hours post-occlusion): significantly improved and accelerated neurological function
apoptotic cell death (TUNEL labeling) in the hippocampus (pMCAO in rats; [3]): reducing apoptotic cell death
neuroprotection (Neu-N positive cells) in the hippocampus (pMCAO in rats; [3]): promotes neuroprotection
neuroregeneration (GAP-43 labeling) in the cortex (pMCAO in rats; [3]): promotes neuroregeneration in the cortex
neurological function following pMCAO (3-weeks) in rats (FIG. 12) (pMCAO in rats; [4]): improves neurological function
neurological function following pMCAO (3 months) in rats (FIG. 13) (pMCAO in rats; [4]): improves neurological function
neurological function following pMCAO (3 weeks) in rats (FIG. 14) (pMCAO in rats; 24 hour post-occlusion, dose not stated): improves neurological function
neuroregeneration in the hippocampus (FIG. 15) (pMCAO in rats; dose not stated): promotes neuroregeneration in the hippocampus
therapeutic window (time of first administration after onset of stroke) (pMCAO in rats; rat models of ischemic stroke): at least 24 hours
weight loss following tMCAO (tMCAO in rats; 3 mg/kg iv): significantly attenuated weight loss
neurological deficits (modified Bederson scale) following tMCAO vs vehicle (tMCAO in rats; 3 mg/kg iv at 4, 6, 24 and 48 hours post-occlusion): showed trends of improving neurological deficits, but did not reach statistical significance
reduction of infarct volume (tMCAO in rats; 3 mg/kg iv, did not reach statistical significance): 9%
weight loss following tMCAO (tMCAO in rats; 10 mg/kg iv): significantly attenuated weight loss
neurological deficits (modified Bederson scale) following tMCAO vs vehicle (tMCAO in rats; 10 mg/kg iv at 4, 6, 24 and 48 hours post-occlusion): significantly improved neurological deficits
reduction of infarct volume (tMCAO in rats; 10 mg/kg iv, significant vs vehicle): 24%
weight loss following tMCAO (tMCAO in rats; 30 mg/kg iv): significantly attenuated weight loss
neurological deficits (modified Bederson scale) following tMCAO vs vehicle (tMCAO in rats; 30 mg/kg iv at 4, 6, 24 and 48 hours post-occlusion): significantly improved neurological deficits
reduction of infarct volume (tMCAO in rats; 30 mg/kg iv, significant vs vehicle): 23%
infarct volume following tMCAO in rats (FIG. 10) (tMCAO in rats; dose not stated): reduces infarct volume
neurological deficits following tMCAO in rats (FIG. 8) (tMCAO in rats; dose not stated): improves neurological deficits
weight loss following tMCAO in rats (FIG. 9) (tMCAO in rats; dose not stated): attenuates weight loss
